# Data reported in BindingDB's records for doi:10.1016/j.bmcl.2004.02.008 (Astrazeneca, 2004).
# Target: Cyclin-dependent kinase 2/G1/S-specific cyclin-E1 (Homo sapiens, UniProt P24941)
# Assay: CDK Assay
# Settings: pH 7; 22 °C
# Method: The kinase activity was assayed using an in vitro scintillation proximity assay (SPA) for measuring incorporation of [gamma-33P] ATP into GST-Rb.
row,Structure (SMILES),IC50 [nM]
1,"CCSc1ccc2ncc(-c3ccnc(Nc4ccc(S(=O)(=O)NCCOC)cc4)n3)n2c1 [4-({4-[6-(ethylsulfanyl)imidazo[1,2-a]pyridin-3-yl]pyrimidin-2-yl}amino)-N-(2-methoxyethyl)benzene-1-sulfonamide]",< 3
2,"COCCNS(=O)(=O)c1ccc(Nc2nccc(-c3cnc4ccc(C#N)cn34)n2)cc1 [4-[(4-{6-cyanoimidazo[1,2-a]pyridin-3-yl}pyrimidin-2-yl)amino]-N-(2-methoxyethyl)benzene-1-sulfonamide]",< 3
3,"COCCNS(=O)(=O)c1ccc(Nc2nccc(-c3cnc4cccnn34)n2)cc1 [4-[(4-{imidazo[1,2-a]pyridazin-3-yl}pyrimidin-2-yl)amino]-N-(2-methoxyethyl)benzene-1-sulfonamide]",< 3
4,"c1ccc(Nc2nccc(-c3cnc4cccnn34)n2)cc1 [4-{imidazo[1,2-a]pyridazin-3-yl}-N-phenylpyrimidin-2-amine]",1000
5,"COCCNS(=O)(=O)c1ccc(Nc2nccc(-c3c(C)nc4cccnn34)n2)cc1 [N-(2-methoxyethyl)-4-[(4-{2-methylimidazo[1,2-a]pyridazin-3-yl}pyrimidin-2-yl)amino]benzene-1-sulfonamide]",3

# Further lines, results first:
row,IC50 [nM],Structure (SMILES)
1,< 3,"COCCNS(=O)(=O)c1ccc(Nc2nccc(-c3cnc4ccc(Br)cn34)n2)cc1 [4-[(4-{6-bromoimidazo[1,2-a]pyridin-3-yl}pyrimidin-2-yl)amino]-N-(2-methoxyethyl)benzene-1-sulfonamide]"
2,600,"COCCN(C)S(=O)(=O)c1ccc(Nc2nccc(-c3cnc4cccnn34)n2)cc1 [4-[(4-{imidazo[1,2-a]pyridazin-3-yl}pyrimidin-2-yl)amino]-N-(2-methoxyethyl)-N-methylbenzene-1-sulfonamide]"
3,< 3,"CNS(=O)(=O)c1ccc(Nc2nccc(-c3cnc4cccnn34)n2)cc1 [4-[(4-{imidazo[1,2-a]pyridazin-3-yl}pyrimidin-2-yl)amino]-N-methylbenzene-1-sulfonamide]"
4,< 3,"NS(=O)(=O)c1ccc(Nc2nccc(-c3cnc4cccnn34)n2)cc1 [4-[(4-{imidazo[1,2-a]pyridazin-3-yl}pyrimidin-2-yl)amino]benzene-1-sulfonamide]"
5,> 10000,"COCCNS(=O)(=O)c1ccc(Nc2ncc(Sc3ccccc3)c(-c3cnc4ccccn34)n2)cc1 [4-[(4-{imidazo[1,2-a]pyridin-3-yl}-5-(phenylsulfanyl)pyrimidin-2-yl)amino]-N-(2-methoxyethyl)benzene-1-sulfonamide]"
6,600,"COCCNS(=O)(=O)c1ccc(Nc2nccc(-c3cnc4ccc(OC)nn34)n2)cc1 [N-(2-methoxyethyl)-4-[(4-{6-methoxyimidazo[1,2-a]pyridazin-3-yl}pyrimidin-2-yl)amino]benzene-1-sulfonamide]"
7,8,"CN(C)CCNS(=O)(=O)c1ccc(Nc2nccc(-c3cnc4cccnn34)n2)cc1 [N-[2-(dimethylamino)ethyl]-4-[(4-{imidazo[1,2-a]pyridazin-3-yl}pyrimidin-2-yl)amino]benzene-1-sulfonamide]"
8,< 3,"CN(C)CCCNS(=O)(=O)c1ccc(Nc2nccc(-c3cnc4cccnn34)n2)cc1 [N-[3-(dimethylamino)propyl]-4-[(4-{imidazo[1,2-a]pyridazin-3-yl}pyrimidin-2-yl)amino]benzene-1-sulfonamide]"
